The record followed here is the NIST ThermoML archive (doi:10.1021/acs.jced.9b00074).

For the data set the following is noted: 100 kPa, Liquid; for viscosity: Falling or rolling sphere viscometry; for mass density: Vibrating tube method.

A word on the viscosity: it is the resistance of a fluid to flow. For orientation: mass density means mass per unit of volume.

Molecules are shown by their SMILES. Numbers after ± are expanded uncertainties.

Turning to `CC12CC3CC(C1)CC(C)(C3)C2` [1,3-dimethyladamantane], the viscosity turned out to be 3.75 ± 0.08 mPa·s (293.15 K); 3.34 ± 0.071 mPa·s (298.15 K); 2.997 ± 0.064 mPa·s (303.15 K); 2.702 ± 0.057 mPa·s (308.15 K); 2.45 ± 0.052 mPa·s (313.15 K); 2.231 ± 0.047 mPa·s (318.15 K). Moreover, the viscosity by setting is: (323.15 K) 2.039 ± 0.043 mPa·s; (328.15 K) 1.871 ± 0.04 mPa·s; (333.15 K) 1.722 ± 0.037 mPa·s. Besides, the mass density (293.15 K) came out at 901.57 ± 0.55 kg/m3; the mass density (298.15 K) came to 898 ± 0.54 kg/m3; the mass density (303.15 K) was found to be 894.43 ± 0.54 kg/m3; the mass density (308.15 K) was 890.86 ± 0.54 kg/m3; the mass density (313.15 K) turned out to be 887.29 ± 0.54 kg/m3; the mass density (318.15 K) is listed as 883.71 ± 0.54 kg/m3. The mass density is 880.13 ± 0.53 kg/m3 (323.15 K), 876.55 ± 0.53 kg/m3 (328.15 K) and 872.96 ± 0.53 kg/m3 (333.15 K).

Take `OC1CCCC1` [cyclopentanol]: the viscosity by setting is: (293.15 K) 11.72 ± 0.25 mPa·s; (298.15 K) 9.6 ± 0.2 mPa·s; (303.15 K) 7.891 ± 0.17 mPa·s; (308.15 K) 6.564 ± 0.14 mPa·s; (313.15 K) 5.509 ± 0.12 mPa·s; (318.15 K) 4.657 ± 0.099 mPa·s. Besides, the viscosity runs as follows: (323.15 K) 3.97 ± 0.084 mPa·s; (328.15 K) 3.409 ± 0.072 mPa·s; (333.15 K) 2.945 ± 0.063 mPa·s. Besides, the mass density is listed as 947.04 ± 0.57 kg/m3 (293.15 K); 943.08 ± 0.57 kg/m3 (298.15 K); 939.08 ± 0.57 kg/m3 (303.15 K); 935.03 ± 0.56 kg/m3 (308.15 K); 930.92 ± 0.56 kg/m3 (313.15 K); 926.76 ± 0.56 kg/m3 (318.15 K). For the same compound, the mass density came to 922.53 ± 0.56 kg/m3 (323.15 K), 918.24 ± 0.55 kg/m3 (328.15 K) and 913.89 ± 0.55 kg/m3 (333.15 K).

Regarding `C1C[C@@H]2[C@H]3CC[C@H](C3)[C@@H]2C1` [exo-tetrahydrodicyclopentadiene], the viscosity worked out at 3.017 ± 0.068 mPa·s (293.15 K); 2.731 ± 0.061 mPa·s (298.15 K); 2.488 ± 0.056 mPa·s (303.15 K); 2.273 ± 0.051 mPa·s (308.15 K); 2.087 ± 0.047 mPa·s (313.15 K); 1.922 ± 0.043 mPa·s (318.15 K). Moreover, the viscosity (323.15 K) is 1.776 ± 0.04 mPa·s, the viscosity (328.15 K) is listed as 1.646 ± 0.037 mPa·s and the viscosity (333.15 K) is listed as 1.53 ± 0.034 mPa·s. In addition, the mass density reads like this: (293.15 K) 935.88 ± 0.7 kg/m3; (298.15 K) 932 ± 0.69 kg/m3; (303.15 K) 928.08 ± 0.69 kg/m3; (308.15 K) 924.16 ± 0.69 kg/m3; (313.15 K) 920.24 ± 0.68 kg/m3; (318.15 K) 916.31 ± 0.68 kg/m3. The mass density runs as follows: (323.15 K) 912.38 ± 0.68 kg/m3; (328.15 K) 908.44 ± 0.68 kg/m3; (333.15 K) 904.5 ± 0.67 kg/m3.
